Data: patent US9809853B2, “Calcium-activated chloride channel involved in human sweat formation” (BRAIN Biotechnology Research and Information Network AG, priority 2012, dated 2017)

Target: T1, TMEM16A(ac) (Homo sapiens, UniProt Q5XXA6, DEL476-501)
T1 construct: expressed in transfected cells
T1 sequence (Q5XXA6 with tags, fused parts or gaps DEL476-501): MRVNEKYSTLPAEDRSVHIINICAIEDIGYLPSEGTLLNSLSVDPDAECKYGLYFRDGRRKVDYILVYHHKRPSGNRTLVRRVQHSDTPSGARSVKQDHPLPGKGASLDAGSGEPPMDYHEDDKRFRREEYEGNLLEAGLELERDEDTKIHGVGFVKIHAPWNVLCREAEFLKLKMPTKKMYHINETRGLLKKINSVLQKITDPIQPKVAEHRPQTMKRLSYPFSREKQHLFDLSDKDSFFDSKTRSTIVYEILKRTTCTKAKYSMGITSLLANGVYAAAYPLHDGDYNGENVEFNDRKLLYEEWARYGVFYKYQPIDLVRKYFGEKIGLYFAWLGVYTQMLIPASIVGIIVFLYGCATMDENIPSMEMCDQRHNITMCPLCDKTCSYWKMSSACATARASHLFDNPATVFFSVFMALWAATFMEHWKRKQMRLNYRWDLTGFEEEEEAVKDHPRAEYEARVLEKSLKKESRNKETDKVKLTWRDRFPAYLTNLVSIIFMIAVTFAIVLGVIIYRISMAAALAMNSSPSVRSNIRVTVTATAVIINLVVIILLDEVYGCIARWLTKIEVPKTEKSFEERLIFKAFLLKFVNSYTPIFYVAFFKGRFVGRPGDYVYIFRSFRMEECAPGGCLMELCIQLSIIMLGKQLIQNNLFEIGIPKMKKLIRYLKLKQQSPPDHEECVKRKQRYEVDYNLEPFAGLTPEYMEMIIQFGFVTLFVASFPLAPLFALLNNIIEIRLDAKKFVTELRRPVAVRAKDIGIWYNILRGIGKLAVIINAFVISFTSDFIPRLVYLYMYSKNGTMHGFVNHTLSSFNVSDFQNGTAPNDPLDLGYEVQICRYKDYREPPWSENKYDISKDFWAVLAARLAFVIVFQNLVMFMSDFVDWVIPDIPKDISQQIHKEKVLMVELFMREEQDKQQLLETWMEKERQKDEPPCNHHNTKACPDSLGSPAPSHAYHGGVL
Assay: hsYFP quenching assay in NCL-SG3-hsYFP-TMEM16A(ac) cells
Format: cell-based
Conditions: 330 μM ATP; for Effect of pretreatment on hsYFP quenching / Ca^2+-dependent Cl^− secretion after ATP: cells overexpressing TMEM16A(ac)
Experimental: NCL-SG3-hsYFP, NCL-SG 3-hsYFP-TMEM16A(ac) and NCL-SG3-hsYFP-TMEM16A(acΔe3) cells were untreated (basal activity) or stimulated with ATP (330 μM). Quenching of hsYFP fluorescence was determined. The rate of I^− influx (sec^−1) was calculated from the initial slope of measured hsYFP fluorescence (ΔYFP fluorescence/Δtime) and is a direct measure of CaCC activity. For better comparison fold changes compared to basal activity of parental cells are shown. […] All influx rate differences are higly statistically significant, except the basal influx rate of parental and TMEM16A(ac) overexpressing NCL-SG3-hsYFP cells (Student's t-test, two-tailed; *** p-value<0.0001).
TMEM16A(ac) and TMEM16A(acΔe3) are present in human eccrine sweat glands and were therefore obtained by RT-PCR amplification using TRIzol® (Invitrogen) extracted RNA from freshly isolated human eccrine sweat glands using oligonucleotides (forward 5′-[…]; reverse 5′-[…]) SEQ ID NOS: 5 and 6 , which amplify full-length TMEM16A, and subsequently cloned into the proprietary eukaryotic gene expression plasmid (pEF1α-TMEM16A(ac) and pEF1α-TMEM16A(acΔe3), FIG. 6A). […] Both genes are coupled by an internal ribosomal entry site (IRES) to enable efficient translation of both open reading frames located on the same mRNA. […]
Taken together, NCL-SG3-hsYFP cells can be used to monitor Ca^2+-dependent Cl^− fluxes, which represent the initial step in primary sweat formation in sweat gland cells. […] Microplates were transferred into an automated fluorescence plate reader (FlexStation®, Molecular Devices) and cellular hsYFP fluorescence was continuously recorded every 3.5 sec until end of the experiment (excitation at 485 nm, emission at 535 nm, cutoff 515 nm). […] NCL-SG3-hsYFP cells allow quantitative evaluation of in vivo Cl^− channel activity (FIGS. 9 and 10D). To determine the exact rate of Cl^− efflux/I^− influx the hsYFP fluorescence was plotted against time (ΔYFP fluorescence/Δtime). […]

| SMILES | ATP-induced activity (I^− influx rate, fold) (TMEM16A(ac) overexpressing cells) [fold] | Effect of pretreatment on hsYFP quenching / Ca^2+-dependent Cl^− secretion after ATP | Effect of pretreatment on hsYFP quenching / Ca^2+-dependent Cl^− secretion after ATP (listed as tannic acid) |
| --- | --- | --- | --- |
| Nc1ncnc2c1ncn2[C@@H]1O[C@H](COP(=O)(O)OP(=O)(O)OP(=O)(O)O)[C@@H](O)[C@H]1O [ATP] | 10 | – | – |
| O=C(OC[C@H]1O[C@@H](OC(=O)c2cc(O)c(O)c(OC(=O)c3cc(O)c(O)c(O)c3)c2)[C@H](OC(=O)c2cc(O)c(O)c(OC(=O)c3cc(O)c(O)c(O)c3)c2)[C@@H](OC(=O)c2cc(O)c(O)c(OC(=O)c3cc(O)c(O)c(O)c3)c2)[C@@H]1OC(=O)c1cc(O)c(O)c(OC(=O)c2cc(O)c(O)c(O)c2)c1)c1cc(O)c(O)c(OC(=O)c2cc(O)c(O)c(O)c2)c1 [TA, tannic acid] | – | significant reduction of hsYFP quenching | inhibited |
